Results as given in PubChem BioAssay (NCI).
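Briefly, cells in 96-well plates were exposed to five compound concentrations for 48 h, and endpoints were estimated by linear interpolation. GI50: concentration for 50% inhibition of growth. TGI: concentration producing complete growth inhibition.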

Experiments:
Assay in all cases: inhibition of tumour cell growth, NCI panel, 48 h
[1] = system: UACC-257 melanoma
[2] = system: SN12C renal
[3] = system: CAKI-1 renal
[4] = system: OVCAR-5 ovarian
[5] = system: PC-3 prostate
[6] = system: HOP-92 NSCLC
[7] = system: OVCAR-4 ovarian
[8] = system: SNB-19 CNS
[9] = system: TK-10 renal
[10] = system: HL-60(TB) leukemia

| Compound | GI50 [1] [µM] | GI50 [2] [µM] | TGI [2] [µM] | GI50 [3] [µM] | GI50 [4] [µM] | TGI [4] [µM] | GI50 [5] [µM] | TGI [5] [µM] | GI50 [6] [µM] | TGI [6] [µM] | GI50 [7] [µM] | TGI [7] [µM] | GI50 [8] [µM] | TGI [8] [µM] | GI50 [9] [µM] | TGI [9] [µM] | GI50 [10] [µM] | TGI [10] [µM] | TGI [1] [µM] | TGI [3] [µM] |
| --- | --- | --- | --- | --- | --- | --- | --- | --- | --- | --- | --- | --- | --- | --- | --- | --- | --- | --- | --- | --- |
| Nc1ccccc1NC(=O)c1ccc(CNc2nccc(-c3cccnc3)n2)cc1 | 0.73 | 2.34 | > 72.8 | 0.323 | 0.55 | > 48 | 0.928 | > 100 | 0.206 | 2.7 | 1.43 | > 28.3 | 3.49 | > 100 | 0.304 | > 27.2 | 0.424 | 2.43 |  |  |
| Cc1cc(=O)[nH]c(N/N=C/c2cc(Br)ccc2O)n1 | 0.383 | 0.809 | > 100 | 1.44 | 5.07 | > 100 | 0.698 | > 100 | 19.3 | > 100 | 0.383 | 33.8 | 3.56 | > 100 | 21.5 | > 100 | 0.446 | 5.68 | 9.12 | 4.89 |
| NC1=CC(=O)c2cccnc2C1=O | 1.54 | 1.49 | 2.94 | 1.59 | 2.05 | 4.72 | 2.22 | 7.55 | 1.71 | 3.39 | 1.3 | 2.78 | 1.84 | 3.88 | 15.6 | 29.2 | 1.05 | 3.99 | 2.9 | 3.15 |
| O=C(/C=C/c1ccco1)c1cc(F)c(Cl)cc1Cl | 24.6 | 22.9 | 57.5 | 32.7 | 22.5 | 48.9 | 24.8 | 80.1 | 18.1 | 39.6 | 22 | 72.3 | 20 | 48.4 | 28.4 | 90.1 | 30.8 | > 100 | 50.5 | > 100 |
| Cn1cc(C2=C(c3ccccc3[N+](=O)[O-])C(=O)NC2=O)c2ccccc21 | 7.11 | 4.98 | > 25 | 3.87 | 8.64 | > 25 | 1.65 | 11.6 | 6.08 | 16.6 | 4.88 | 24.5 | 6.88 | > 25 | 5.58 | 18.6 | 2.11 | 13.9 | 17.7 | > 20.8 |
| N#Cc1c(NC(=O)NCc2ccccc2)sc2c1CCCC2 | > 71 | 0.813 | > 100 | 0.776 | 2.39 | > 100 | 0.559 | > 100 | 1.79 | 71 | 1.78 | > 100 | 0.675 | > 100 | 14.6 | > 100 | 0.3 | 3.13 | > 100 | > 100 |
| C=C(C)C1CC/C(C)=C/CCC2(C)OC2CC/C(CO)=C\C1O (stereo unspecified) |  |  | > 100 |  |  | > 100 |  | > 100 |  | > 100 |  | > 100 |  | > 100 |  | > 100 |  | > 100 | > 100 | > 100 |
| Cc1cc(Nc2ccc(OCc3ccccc3)cc2)nc2cc(O)ccc12 | 3.49 | 5.75 | 20.3 | 4.88 | 4.66 | 18.4 | 3.46 | 18 | 2.01 | 6.26 | 8.74 | 22.6 | 9.57 | 23.2 | 14.5 | 29.2 | 3.38 | 14.7 | 13.5 | 18.3 |
| CC1(C)N=C(N)N=C(N)N1c1ccc(CCCCc2ccccc2)c(Cl)c1 | 0.247 | 0.0521 | 7.02 | 0.869 | 0.331 | 22.4 | < 0.0172 | 6.88 | 0.464 | 4.48 | 0.0755 | 9.66 | 0.0746 | > 35.9 | 0.0721 | 17.5 |  | 3.26 | 5.26 | 16.8 |
| C=CCC(N[C@@H](CO)c1ccccc1)c1cn(Cc2ccccc2Cl)c(=O)n(Cc2ccccc2Cl)c1=O (stereo partly specified) | > 100 | > 100 | > 100 | 73.6 | > 100 | > 100 | 83.9 | > 100 | > 100 | > 100 | > 100 | > 100 | > 100 | > 100 | > 100 | > 100 | 93.2 | > 100 | > 100 | > 100 |
| CCC(CC)c1nc(Nc2ccc(C(=O)OC)cc2)c2ccccc2n1 | 9.73 | 7.83 | 16.3 | 5.74 | 17.9 | > 50 | 7.8 | 17.1 | 18.6 | > 26.4 | 7.45 | 18.6 | 8.07 | 15.2 | 13.2 | 25.7 | 8.17 | 26 | 20 | 11.8 |
| CN(C)c1ccc(/C=C/c2ccnc3c(O)cccc23)cc1 | 0.409 | 0.529 | > 100 | 0.401 | 6.66 | > 100 | 0.383 | > 100 | 0.211 |  | 0.404 | > 100 | 0.395 | > 100 | 1.68 | > 100 | 0.292 | 1.75 | 3.08 | > 74.4 |
| CC(C)N1CC2CN(Cc3ccccc3)CC(C1)C2=O |  |  | > 100 |  |  | > 100 |  | > 100 |  | > 100 |  | > 100 |  | > 100 |  | > 100 |  | > 100 | > 100 | > 100 |
| Cc1cccc(-c2[nH]ncc2-c2ccc3ncccc3n2)n1 | > 21.3 | 9.64 | > 25 | > 19 | 9.82 | > 25 | > 17.3 | > 25 | 10 | > 25 | > 22.4 | > 25 | 13.2 | > 25 | 13 | > 25 | 10 | > 23.7 | > 25 | > 25 |
| NCCCNc1nc2ccccc2c2c(=O)c3cc(F)cc(F)c3sc12 | 1.88 | 1.68 | 3.27 | 1.86 | 1.6 | 3.03 | 1.67 | 3.24 | 1.65 | 12.6 | 1.75 | 3.61 | 1.7 | 3.23 | 1.69 | 3.18 | 2.08 | 4.2 | 4.18 | 4.18 |
| Cc1ccc(NC(=O)c2ccc(CN3CCN(C)CC3)cc2)cc1Nc1nccc(-c2cccnc2)n1 | 17.1 | 30.7 | > 100 | 30.3 | 2.08 | 39.5 | 21.5 | 71.6 | 12.6 | 37.3 | 18.6 | 65.3 | 36.1 | > 100 | 28.1 | 70.6 | 16 | 35.9 | 38.5 | 67 |
| Cc1cc(Cl)cc2c(N=Nc3ccc(S(N)(=O)=O)cc3)c(O)[nH]c12 | > 25 | > 25 | > 25 | > 25 | > 25 | > 25 | > 25 | > 25 | > 25 | > 25 | > 25 | > 25 | > 25 | > 25 | > 25 | > 25 | > 25 | > 25 | > 25 | > 25 |
| COc1c(O)c(OC)c2oc(-c3ccc(O)c(O)c3)c(OC)c(=O)c2c1O |  |  | > 100 |  |  | > 100 |  | > 100 |  | 66 |  | > 100 |  | > 100 |  | 99.5 |  | 68.7 | > 100 | > 100 |
